# Experimental data published in patent US12617779B2, “Self degradation-type CDK9 inhibitor prodrug and liposome encapsulating same” (Sumitomo Pharma Co., Ltd., priority 2021, dated 2026).
# Counter-ions that a name gives are not always drawn.
# Assay: Evaluation of conversion rate to active form in buffer solution (Experimental Example 1)
# Format: physicochemical
# Details: for Production rate of Alvocidib / Residual rate: 25 umol/L in buffer solution; for Stability in buffer solution at pH 5: pH 5, 37° C., up to 2 or 3 hours; for Conversion to Alvocidib at pH 7.4: pH 7.4, 37° C., up to 3 hours
# Method in brief: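 25 umol/L cpd, 37° C; 50 mM citrate pH 5.0/5.5, 50 mM phosphate pH 6.0/6.5/7.0/7.4. HPLC at 0–3 h: residual rate and Alvocidib production rate.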
smiles,measurement,setting,value
"CCN(CC1CCCCN1)C(=O)Oc1cc(O)c2c(=O)cc(-c3ccccc3Cl)oc2c1[C@H]1CCN(C)C[C@H]1O (stereo partly drawn) [Example 7, 2-(2-chlorophenyl)-5-hydroxy-8-[(3S,4R)-3-hydroxy-1-methylpiperidin-4-yl]-4-oxo-4H-1-benzopyran-7-yl ethyl[(piperidin-2-yl)methyl]carbamate dihydrochloride]",Production rate of Alvocidib,"pH5.0, 0 hr, 37° C.",0.0%
same,Residual rate,"pH5.0, 0 hr, 37° C.",100.0%
same,Stability in buffer solution at pH 5,,stable
same,Production rate of Alvocidib,"pH5.0, 0.5 hr, 37° C.",0.0%
same,Residual rate,"pH5.0, 0.5 hr, 37° C.",100.0%
same,Production rate of Alvocidib,"pH5.0, 1 hr, 37° C.",0.0%
same,Residual rate,"pH5.0, 1 hr, 37° C.",100.0%
same,Production rate of Alvocidib,"pH5.0, 2 hr, 37° C.",1.5%
same,Residual rate,"pH5.0, 2 hr, 37° C.",98.5%
same,Production rate of Alvocidib,"pH5.0, 3 hr, 37° C.",2.3%
same,Residual rate,"pH5.0, 3 hr, 37° C.",97.7%
same,Production rate of Alvocidib,"pH5.5, 0 hr, 37° C.",0.0%
same,Residual rate,"pH5.5, 0 hr, 37° C.",100.0%
same,Production rate of Alvocidib,"pH5.5, 0.5 hr, 37° C.",1.2%
same,Residual rate,"pH5.5, 0.5 hr, 37° C.",98.8%
same,Production rate of Alvocidib,"pH5.5, 1 hr, 37° C.",2.0%
same,Residual rate,"pH5.5, 1 hr, 37° C.",98.0%
same,Production rate of Alvocidib,"pH5.5, 2 hr, 37° C.",3.8%
same,Residual rate,"pH5.5, 2 hr, 37° C.",96.2%
same,Production rate of Alvocidib,"pH5.5, 3 hr, 37° C.",5.1%
same,Residual rate,"pH5.5, 3 hr, 37° C.",94.9%
same,Production rate of Alvocidib,"pH6.0, 0 hr, 37° C.",1.1%
same,Residual rate,"pH6.0, 0 hr, 37° C.",98.9%
same,Production rate of Alvocidib,"pH6.0, 0.5 hr, 37° C.",4.0%
same,Residual rate,"pH6.0, 0.5 hr, 37° C.",96.0%
same,Production rate of Alvocidib,"pH6.0, 1 hr, 37° C.",5.4%
same,Residual rate,"pH6.0, 1 hr, 37° C.",94.6%
same,Production rate of Alvocidib,"pH6.0, 2 hr, 37° C.",12.5%
same,Residual rate,"pH6.0, 2 hr, 37° C.",87.5%
same,Production rate of Alvocidib,"pH6.0, 3 hr, 37° C.",16.6%
same,Residual rate,"pH6.0, 3 hr, 37° C.",83.4%
same,Production rate of Alvocidib,"pH6.5, 0 hr, 37° C.",3.3%
same,Residual rate,"pH6.5, 0 hr, 37° C.",96.7%
same,Production rate of Alvocidib,"pH6.5, 0.5 hr, 37° C.",12.4%
same,Residual rate,"pH6.5, 0.5 hr, 37° C.",87.6%
same,Production rate of Alvocidib,"pH6.5, 1 hr, 37° C.",16.0%
same,Residual rate,"pH6.5, 1 hr, 37° C.",84.0%
same,Production rate of Alvocidib,"pH6.5, 2 hr, 37° C.",26.8%
same,Residual rate,"pH6.5, 2 hr, 37° C.",73.2%
same,Production rate of Alvocidib,"pH6.5, 3 hr, 37° C.",35.2%
same,Residual rate,"pH6.5, 3 hr, 37° C.",64.8%
same,Production rate of Alvocidib,"pH7.0, 0 hr, 37° C.",10.9%
same,Residual rate,"pH7.0, 0 hr, 37° C.",89.1%
same,Production rate of Alvocidib,"pH7.0, 0.5 hr, 37° C.",27.3%
same,Residual rate,"pH7.0, 0.5 hr, 37° C.",72.7%
same,Production rate of Alvocidib,"pH7.0, 1 hr, 37° C.",38.0%
same,Residual rate,"pH7.0, 1 hr, 37° C.",62.0%
same,Production rate of Alvocidib,"pH7.0, 2 hr, 37° C.",52.9%
same,Residual rate,"pH7.0, 2 hr, 37° C.",47.1%
same,Production rate of Alvocidib,"pH7.0, 3 hr, 37° C.",70.5%
same,Residual rate,"pH7.0, 3 hr, 37° C.",29.5%
same,Production rate of Alvocidib,"pH7.4, 0 hr, 37° C.",19.0%
same,Residual rate,"pH7.4, 0 hr, 37° C.",81.0%
same,Conversion to Alvocidib at pH 7.4,,rapidly converted to Alvocidib
same,Production rate of Alvocidib,"pH7.4, 0.5 hr, 37° C.",50.2%
same,Residual rate,"pH7.4, 0.5 hr, 37° C.",49.8%
same,Production rate of Alvocidib,"pH7.4, 1 hr, 37° C.",60.8%
same,Residual rate,"pH7.4, 1 hr, 37° C.",39.2%
same,Production rate of Alvocidib,"pH7.4, 2 hr, 37° C.",69.0%
same,Residual rate,"pH7.4, 2 hr, 37° C.",31.0%
same,Production rate of Alvocidib,"pH7.4, 3 hr, 37° C.",81.0%
same,Residual rate,"pH7.4, 3 hr, 37° C.",19.0%
"CC(C)N(CC1CCCCN1)C(=O)Oc1cc(O)c2c(=O)cc(-c3ccccc3Cl)oc2c1[C@H]1CCN(C)C[C@H]1O (stereo partly drawn) [Example 10, 2-(2-chlorophenyl)-5-hydroxy-8-[(3S,4R)-3-hydroxy-1-methylpiperidin-4-yl]-4-oxo-4H-1-benzopyran-7-yl [(piperidin-2-yl)methyl]propan-2-ylcarbamate]",Efficiency of conversion to Alvocidib,"buffer solution, 37° C.",higher efficiency
same,Production rate of Alvocidib,"pH5.0, 0 hr, 37° C.",1.6%
same,Residual rate,"pH5.0, 0 hr, 37° C.",90.6%
same,Stability in buffer solution at pH 5,,stable
same,Production rate of Alvocidib,"pH5.0, 0.5 hr, 37° C.",2.1%
same,Residual rate,"pH5.0, 0.5 hr, 37° C.",90.4%
same,Production rate of Alvocidib,"pH5.0, 1 hr, 37° C.",2.5%
same,Residual rate,"pH5.0, 1 hr, 37° C.",90.8%
same,Production rate of Alvocidib,"pH5.0, 2 hr, 37° C.",3.1%
same,Residual rate,"pH5.0, 2 hr, 37° C.",90.1%
same,Production rate of Alvocidib,"pH5.0, 3 hr, 37° C.",3.9%
same,Residual rate,"pH5.0, 3 hr, 37° C.",89.5%
same,Production rate of Alvocidib,"pH5.5, 0 hr, 37° C.",1.6%
same,Residual rate,"pH5.5, 0 hr, 37° C.",90.7%
same,Production rate of Alvocidib,"pH5.5, 0.5 hr, 37° C.",2.7%
same,Residual rate,"pH5.5, 0.5 hr, 37° C.",90.4%
same,Production rate of Alvocidib,"pH5.5, 1 hr, 37° C.",3.6%
same,Residual rate,"pH5.5, 1 hr, 37° C.",89.5%
same,Production rate of Alvocidib,"pH5.5, 2 hr, 37° C.",5.4%
same,Residual rate,"pH5.5, 2 hr, 37° C.",87.9%
same,Production rate of Alvocidib,"pH5.5, 3 hr, 37° C.",7.2%
same,Residual rate,"pH5.5, 3 hr, 37° C.",86.3%
same,Production rate of Alvocidib,"pH6.0, 0 hr, 37° C.",1.7%
same,Residual rate,"pH6.0, 0 hr, 37° C.",90.7%
same,Production rate of Alvocidib,"pH6.0, 0.5 hr, 37° C.",4.9%
same,Residual rate,"pH6.0, 0.5 hr, 37° C.",88.2%
same,Production rate of Alvocidib,"pH6.0, 1 hr, 37° C.",8.1%
same,Residual rate,"pH6.0, 1 hr, 37° C.",85.2%
same,Production rate of Alvocidib,"pH6.0, 2 hr, 37° C.",14.1%
same,Residual rate,"pH6.0, 2 hr, 37° C.",79.4%
same,Production rate of Alvocidib,"pH6.0, 3 hr, 37° C.",19.8%
same,Residual rate,"pH6.0, 3 hr, 37° C.",74.1%
same,Production rate of Alvocidib,"pH6.5, 0 hr, 37° C.",1.9%
same,Residual rate,"pH6.5, 0 hr, 37° C.",91.3%
same,Production rate of Alvocidib,"pH6.5, 0.5 hr, 37° C.",10.8%
same,Residual rate,"pH6.5, 0.5 hr, 37° C.",82.4%
same,Production rate of Alvocidib,"pH6.5, 1 hr, 37° C.",19.4%
same,Residual rate,"pH6.5, 1 hr, 37° C.",73.9%
same,Production rate of Alvocidib,"pH6.5, 2 hr, 37° C.",34.6%
same,Residual rate,"pH6.5, 2 hr, 37° C.",59.6%
same,Production rate of Alvocidib,"pH6.5, 3 hr, 37° C.",46.2%
same,Residual rate,"pH6.5, 3 hr, 37° C.",47.1%
same,Production rate of Alvocidib,"pH7.0, 0 hr, 37° C.",2.2%
same,Residual rate,"pH7.0, 0 hr, 37° C.",90.7%
same,Production rate of Alvocidib,"pH7.0, 0.5 hr, 37° C.",22.8%
same,Residual rate,"pH7.0, 0.5 hr, 37° C.",70.0%
same,Production rate of Alvocidib,"pH7.0, 1 hr, 37° C.",40.0%
same,Residual rate,"pH7.0, 1 hr, 37° C.",52.8%
same,Production rate of Alvocidib,"pH7.0, 2 hr, 37° C.",63.6%
same,Residual rate,"pH7.0, 2 hr, 37° C.",29.6%
same,Production rate of Alvocidib,"pH7.0, 3 hr, 37° C.",76.4%
same,Residual rate,"pH7.0, 3 hr, 37° C.",0.8%
same,Production rate of Alvocidib,"pH7.4, 0 hr, 37° C.",3.1%
same,Residual rate,"pH7.4, 0 hr, 37° C.",89.9%
same,Conversion to Alvocidib at pH 7.4,,rapidly converted to Alvocidib
same,Production rate of Alvocidib,"pH7.4, 0.5 hr, 37° C.",46.1%
same,Residual rate,"pH7.4, 0.5 hr, 37° C.",46.5%
same,Production rate of Alvocidib,"pH7.4, 1 hr, 37° C.",71.5%
same,Residual rate,"pH7.4, 1 hr, 37° C.",22.6%
same,Production rate of Alvocidib,"pH7.4, 2 hr, 37° C.",87.2%
same,Residual rate,"pH7.4, 2 hr, 37° C.",0.9%
same,Production rate of Alvocidib,"pH7.4, 3 hr, 37° C.",91.6%
same,Residual rate,"pH7.4, 3 hr, 37° C.",0.8%
